Measurements taken from article PMC5750217 (Nature Communications, 2018).

Columns and labels:
GltPh-G396S/R397C = biological target: T1, GltPh-G396S/R397C (Pyrococcus horikoshii, UniProt O59010, G396S/R397C); assay: biochemical; format: biochemical
T1 construct: hexa-His (N, cleaved yes); made in house; host or cells: Escherichia coli Top10 (pBAD)
Description: (§1) Mutant and wild-type GltPh with an amino-terminal hexa-His tag were expressed in Escherichia coli Top10 cells (Invitrogen), which were grown in Luria broth medium at 37 °C. Ampicillin was added to a final concentration of 100 μg per ml. To induce expression of GltPh, 0.1% L-arabinose was added when cells reached an optical density of 0.6 at 660 nm, and cells were harvested 4 h post induction. Membranes were isolated, and then solubilised with n-dodecyl-β-D-maltopyranoside (C12M, Anatrace). Histidine containing proteins were purified using Ni^2+−nitrilotriacetic acid resin (Qiagen). The histidine tag was subsequently removed from GltPh by digestion with thrombin (10 U per mg protein) and the protein further purified on a Superdex 200 size exclusion column, where the detergent was exchanged to n-decyl-β-D-maltopyranoside (C10M, Anatrace).
(§2) Pure protein was reconstituted into liposomes composed of 75% E. coli Polar Lipid Extract and 25% 1-palmitoyl-2-oleoyl-sn-glycero-3 ^−phopshocholine (Avanti Polar Lipids). Lipids were mixed, dried under nitrogen and resuspended in internal buffer (100 mM KCl, 20 mM HEPES-Tris pH 7.5) using brief sonication (Laboratory Supplies Co.). The lipid suspension was frozen in liquid nitrogen and thawed at room temperature several times. Liposomes were formed by extrusion through 400 nm polycarbonate membranes (Avanti Polar Lipids) and were treated with Triton X-100 at a 0.5:1 (w/w) detergent to lipid ratio prior to the addition of protein at 0.25 μg protein per mg lipid. The protein/lipid mixture was left at room temperature for 30 min before detergent was removed using SM2 Biobeads (BioRad). The mixture was then incubated with gentle agitation, with four consecutive batches of Biobeads (80 mg per ml). Proteoliposomes were concentrated by centrifugation at 150,000 g for 30 min, resuspended at 100 mg lipid per ml and either used immediately or flash-frozen in liquid nitrogen and stored at −80 °C.
(§3) Mutant and wild-type GltPh-mediated transport of radiolabelled substrate was assayed by diluting proteoliposomes (100 mg lipid per ml) 133-fold into uptake buffer (100 mM NaCl, 20 mM HEPES-Tris pH 7.5, 1 μM valinomycin, 100 nM–1 µM L-[^3H]substrate) pre-warmed to 30 °C. At each time point, a 200 µl aliquot was removed and diluted 10-fold into ice-cold quench buffer (100 mM LiCl, 20 mM HEPES-Tris pH 7.5), followed by immediate filtration over nitrocellulose filters (0.22 μm pore size, Millipore). The filters were washed with ice-cold quench buffer and assayed for radioactivity using a Trilux beta counter (PerkinElmer). To establish substrate concentration–response curves, extraliposomal L-[^3H]substrate was varied between 500 nM and 100 µM, maintaining NaCl concentrations at 300 mM. For inhibitor concentration–response curves, for wild-type GltPh 100 nM L-[^3H]aspartate, and for mutant GltPh 1 µM L-[^3H]serine, was co-applied with varying inhibitor concentrations. Background levels of uptake were measured by diluting proteoliposomes into internal buffer (100 mM KCl, 20 mM HEPES-Tris pH 7.5) containing 1 µM of valinomycin and the indicated concentrations of L-[^3H]substrate.

ASCT2 = biological target: T2, ASCT2 (Homo sapiens, UniProt Q15758); assay: Radiolabelled uptake in oocytes expressing ASCT2; format: cell-based; conditions: 10 µM radiolabelled substrate, 10 min, room temperature
T2 sequence (Q15758 1-541): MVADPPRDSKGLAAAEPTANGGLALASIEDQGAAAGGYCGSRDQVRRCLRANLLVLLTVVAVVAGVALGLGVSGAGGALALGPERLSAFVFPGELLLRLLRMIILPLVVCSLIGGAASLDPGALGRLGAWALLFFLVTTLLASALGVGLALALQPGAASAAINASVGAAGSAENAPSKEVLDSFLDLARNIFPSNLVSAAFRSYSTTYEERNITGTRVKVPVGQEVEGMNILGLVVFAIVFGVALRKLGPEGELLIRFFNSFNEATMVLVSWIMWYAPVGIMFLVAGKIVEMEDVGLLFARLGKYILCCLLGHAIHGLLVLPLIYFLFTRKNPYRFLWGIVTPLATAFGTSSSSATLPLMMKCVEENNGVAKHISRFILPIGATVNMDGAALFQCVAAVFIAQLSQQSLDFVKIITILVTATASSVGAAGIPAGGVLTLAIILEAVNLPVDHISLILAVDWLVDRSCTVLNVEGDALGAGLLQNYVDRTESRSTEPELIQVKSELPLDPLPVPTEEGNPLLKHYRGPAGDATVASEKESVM
Description: Uptake of L-[^3H]amino acids (PerkinElmer Life Sciences) was measured in oocytes expressing wild-type and mutant ASCT1, and uninjected oocytes. Five oocytes were incubated in Cl^−-containing buffer with 10 µM L-[^3H]amino acids at room temperature. After 10 min, uptake was terminated by three rapid washes in ice-cold Cl^−-containing buffer followed by lysis in 50 mM NaOH and 1% SDS. L-[^3H]amino acids were measured by scintillation counting using a Trilux beta counter (PerkinElmer Life Sciences).
Supplementary Figure 6. GltPh‐R397C, ASCT1 and ASCT2 are functional cysteine transporters. (a) […]
7.5) containing 1 µM of valinomycin and the 10µM 35S‐cysteine. […]
(1 picture or pasted object on this page, not shown here)

wild-type GltPh = biological target: T3, wild-type GltPh (Pyrococcus horikoshii, UniProt O59010); assay: Proteoliposome transport assay, wild-type GltPh; format: biochemical; conditions: for Transport of radiolabelled substrate into proteoliposomes (in words): 1 µM L-[3H]substrate, Na+ gradient, pH 7.5
T3 construct: hexa-His (N, cleaved yes); made in house; host or cells: Escherichia coli Top10 (pBAD)
T3 sequence (O59010 1-425): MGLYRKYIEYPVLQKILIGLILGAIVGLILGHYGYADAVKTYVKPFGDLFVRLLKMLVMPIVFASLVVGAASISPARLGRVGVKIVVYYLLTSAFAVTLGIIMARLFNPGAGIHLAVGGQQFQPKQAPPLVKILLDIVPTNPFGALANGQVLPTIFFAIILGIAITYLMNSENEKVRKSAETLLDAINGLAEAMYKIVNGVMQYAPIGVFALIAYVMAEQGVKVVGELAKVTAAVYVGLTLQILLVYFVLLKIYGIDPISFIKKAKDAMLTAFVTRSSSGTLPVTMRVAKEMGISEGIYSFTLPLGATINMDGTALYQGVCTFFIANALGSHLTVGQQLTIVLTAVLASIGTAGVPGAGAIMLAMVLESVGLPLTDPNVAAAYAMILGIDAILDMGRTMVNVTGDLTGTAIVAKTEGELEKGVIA
Description: as §1, §2, §3

T1 sequence (O59010 whole entry G396S/R397C): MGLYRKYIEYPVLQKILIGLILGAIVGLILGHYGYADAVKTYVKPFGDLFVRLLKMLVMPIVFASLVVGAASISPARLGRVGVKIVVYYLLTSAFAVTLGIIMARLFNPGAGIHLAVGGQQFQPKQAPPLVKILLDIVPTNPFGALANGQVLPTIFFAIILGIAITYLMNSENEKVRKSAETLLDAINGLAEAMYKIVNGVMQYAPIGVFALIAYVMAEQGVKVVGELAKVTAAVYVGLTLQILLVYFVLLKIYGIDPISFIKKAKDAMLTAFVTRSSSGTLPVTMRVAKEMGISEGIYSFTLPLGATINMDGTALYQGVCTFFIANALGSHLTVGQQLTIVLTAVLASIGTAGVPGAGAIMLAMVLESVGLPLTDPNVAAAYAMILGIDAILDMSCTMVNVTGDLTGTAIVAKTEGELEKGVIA

SMILES	Reduction of L-[3H]serine transport by unlabelled competitor (in words) (GltPh-G396S/R397C; GltPh-R397C/G396S, 10 µM L-[3H]serine, 100-fold excess unlabelled amino acid)	Radiolabelled substrate uptake into oocytes (in words) (ASCT2)	Transport of radiolabelled substrate into proteoliposomes (in words) (wild-type GltPh)	EC50 (GltPh-G396S/R397C) [µM]	IC50 for inhibition of L-[3H]aspartate transport (wild-type GltPh; 100 nM L-[3H]aspartate)	IC50 for inhibition of L-[3H]serine transport (GltPh-G396S/R397C; GltPh-G396S/R397C, 1 µM L-[3H]serine)	Transport of radiolabelled substrate into proteoliposomes (in words) (GltPh-G396S/R397C; GltPh-G396S/R397C, 100 nM L-[3H]aspartate, 1 µM L-[3H]glutamine, Na+ gradient, pH 7.5)
N[C@@H](CS)C(=O)O [L-cysteine]	to a similar extent	robust L-[^35S]cysteine uptake	–	–	–	–	–
N[C@@H](CO)C(=O)O [L-serine]	–	observe L-[^3H]serine uptake	not transported	15 ± 2	–	–	–
N[C@@H](CCC(=O)Nc1ccc([N+](=O)[O-])cc1)C(=O)O [GPNA, glutamyl-p-nitroanilide]	–	–	–	–	ineffective	poor inhibitor	–
NC(=O)CC[C@H](N)C(=O)O [L-glutamine]	–	robust L-[^3H]glutamine uptake	not transported	–	–	–	does not effectively transport
